The record followed here is patent US20230024521A1, “JAK INHIBITORS” (Vimalan Biosciences, Inc., priority 2019, published 2023).

Each structure is given as a SMILES string. Read-outs that look alike come from different tables or passages of the source. Where only a bound is given, the exact number is not on record here.

The test system of test [1] is JAK1/JAK3: IL-2 stimulated STAT5 phosphorylation. As to the kind of experiment: JAK1/JAK3: IL-2 stimulated STAT5 phosphorylation in PBMCs. The class given is cell-based, human. Conditions: PBMC. As to the method: Example B: JAK1/JAK3: IL-2 Stimulated STAT5 Phosphorylation in PBMCs
Human PBMCs: (Precision Biomedicine)
Thaw as per instructions. Thaw frozen PBMCs in 37° C. water bath. Transfer cell suspension to 9 mL of pre-warmed complete media (RPMI+10% FBS+L-Glu+Pen/Strep). Centrifuge at 400×g for 5 min and wash cells with 10 mL of complete media. Resuspend pellet for a cell-count of 3×10^6 cells/mL
Seed cells into 96-deep well at 80 uL/well based on experimental plate layout. Add 10 μL of (10× conc.) of different concentrations of compounds to all wells except controls (unstimulated) and mix it with 200 uL multichannel pipet. Add 10 uL of complete RPMI media with same % DMSO in controls. For dilution of compounds and dilution range please refer to appendix. Incubate in 5% CO2 incubator for 1 hour at 37° C. Add 10 μL of (10× conc.) IL-2 (final conc. 50 ng/mL) to each well except unstimulated and unstained controls and incubate further for 20 minutes in water bath at 37° C.
Add 900 μL of prewarmed 1× Fix/Lyse solution (Appendix) and mix it properly using 1000 μL multichannel pipet; incubate further on water bath at 37° C. for 10 minutes. Centrifuge at 800×g for 5 minutes, remove 900 uL of supernatant, and add 1000 μL of freshly prepared wash buffer or 1× PBS. Centrifuge at 800×g for 5 minutes, remove 900 μL of supernatant, and resuspend the pellet in remaining buffer.
Disrupt the pellet by gentle tapping and add 1000 μL of ice cold BD Phosflow Perm Buffer III and incubate further on ice for 30 minutes. Centrifuge at 800×g for 5 minutes. Wash two more times with 1000 μL of BD Stain buffer, remove supernatant except 100 uL of buffer after the last wash.
Disrupt the pellet by gentle tapping, add 100 uL of stain buffer and 5 μL of pSTAT5_Alex488 […] in all appropriate wells and mix properly using 200 μL multichannel pipet. Incubate plate overnight at […]. Add 900 μL of BD stain buffer and centrifuge at 800×g for 5 minutes. Wash one additional time with 1000 μL of buffer. Finally resuspend the pellet in 300 uL of BD stain buffer.
Transfer the cells to 96-well v-bottom plate and acquire the cells in Beckman Coulter Cytoflex. Acquiring cells in Flow Cytometer: Keep the threshold value to 250. Acquire at least 8,000-10,000 cells.
(§1) RPMI 1640 Complete Medium: RPMI 1640 media+10% FBS.
Cytokine dilution: 1) IL-2 Stock at 100 ug/mL. Prepare a 0.5 ug/mL dilution by adding 5 uL of stock into 995 uL of cRPMI. Keep it on ice until used.
(§2) Lyse/Fix buffer preparation: Dilute 5× Lyse/Fix buffer to 1× using MQ water and keep at 37° C. until used.
(§3) BD Phosflow perm buffer III: Keep on ice/fridge

Test [2] deals with JAK2: GM-CSF stimulated STAT5 phosphorylation. As to the kind of experiment: Co-stimulation assay in lysed whole blood; JAK2: GM-CSF stimulated STAT5 phosphorylation. The class given is cell-based, human. As to the method:
Example C: Co-Stimulation Assay in Lysed Whole Blood; JAK2: GM-CSF Stimulated STAT5 Phosphorylation and JAK1/TYK2 Stimulated STAT1 Phosphorylation Assay
Human Blood Lysis using abcam's RBC lysis buffer
Dilute RBC lysis buffer to 1× in distilled water. Add 2 mL blood to 38 mL of 1×RBC-lysis buffer. Incubate for 15 mins at RT, in dark. Spin at 300 g, 5 mins, to collect the pellet. Re-lyse if necessary. Re-suspend pellet in 5 mL of cRPMI.
Aliquot 80 μL of lysed human blood in to wells of 96 deep-well plate. Add 10 μl of (10× conc.) of different concentrations of compounds to all wells except controls (unstained and unstimulated) and mix it with the help of 100 uL multichannel Add 10 uL of RPMI media in controls. For dilution of compounds and dilution range please refer Appendix. Incubate on water bath or CO2 incubator for 1 hour at 37° C. Add 10 μl of (10× conc.) of cytokine mix (GM-CSF and IFNa) (final conc. 10 ng/mL of GM-CSF and 100 ng/mL of IFNa) to each well except unstimulated and unstained controls and incubate further for 20 minutes on water bath at 37° C.
Add 900 μL of prewarmed 1× Fix/Lyse solution (Appendix) and mix it properly using 1000 μl multichannel, incubate further on water bath at 37° C. for 10 minutes (which includes time of addition). Centrifuge at 800×g for 5 minutes at 40° C.; remove 900 uL of supernatant and add 900 μL of 1×PBS. Centrifuge at 800×g for 5 minutes at 40° C., remove 900 μL of supernatant. Wash one more time with 900 μL of PBS (optional) and resuspend pellets in 100 uL of PBS.
Disrupt the pellet by gentle tapping and resuspend in 1000 μL of BD Phosflow Perm Buffer III and incubate plate on ice for 30 minutes. Centrifuge plate at 800×g for 5 minutes at 40° C. Wash two more times with 1000 μL of BD Pharmingen Stain Buffer.
Disrupt the pellet by gentle tapping. Resuspend pellets in 100 uL of Stain Buffer and add 5 μL of pSTAT5_AF488 Ab and 5 uL of pSTAT1_PE in all wells except unstained control and mix properly using 200 μl multichannel, incubate overnight at […]. Add 900 μL of wash buffer and centrifuge at 1800 rpm for 3 minutes at […]. Wash one more time with 1000 μL of BD Pharmingen Stain Buffer. Finally resuspend the pellet in 300 uL of BD Pharmingen Stain Buffer. Transfer the cells to 96-well v-bottom plate and acquire the cells in Beckman Coulter CytExpert. Acquiring cells in Flow Cytometer: Keep the threshold value to 250 and cell concentration should not exceed 100-500 cells/4. Acquire at least 5,000-10,000 cells.
as §1
Cytokine dilution: 1) GM-CSF Stock at 100 ug/mL. Prepare an intermediate dilution of 1 ug/mL by adding 2 uL of stock into 198 uL of cRPMI. Further dilute to 100 ng/mL by adding 100 uL of the intermediate stock to 900 uL of cRPMI. 2) IFNa Stock at 200 ug/mL. Dilute IFNa stock 1:200 by adding 5 uL of stock into the 1000 uL of 100 ng/mL GM-CSF working stock as above to give a combined working stock of 1000 ng/mL of IFNa and 100 ng/mL GM-CSF (10×). Keep it on ice until used.
as §2, §3

The mark [3] stands for this setting: human PBMCs, IL-2 50 ng/mL, pSTAT5 by flow cytometry, read-out: IL-2/J1J3/pS5: IC50 GeoMean.
Setting [4] is: lysed human whole blood, GM-CSF 10 ng/mL (with IFNa 100 ng/mL), pSTAT5 by flow cytometry, read-out: GMCSF/J2/pS5: GeoMean.
[5] abbreviates: Homo sapiens, read-out: IL-2/J1J3/pS5: IC50 GeoMean (nM).
[6] abbreviates: Homo sapiens, read-out: GMCSF/J2/pS5: GeoMean (nM).

As for `CC[C@H](Cn1ccc2cnc(Nc3cnn(CC(N)=O)c3)nc21)C(C)C` [Example 1, (S)-2-(4-((7-(2-ethyl-3-methylbutyl)-7H-pyrrolo[2,3-d]pyrimidin-2-yl)amino)-1H-pyrazol-1-yl) acetamide], the IC50 in test [1] (setting [3]) was < 100 nM; in test [2] (setting [4]) it was 100 to 1000 nM.
With `CC[C@H](Cn1ccc2cnc(Nc3cnn(CC(=O)N4CCOC4=O)c3)nc21)C(C)C` [Example 3, (5)-3-(2-(4-((7-(2-ethyl-3-methylbutyl)-7H-pyrrolo[2,3-d]pyrimidin-2-yl)amino)-1H-pyrazol-1-yl)acetyl) oxazolidin-2-one], the IC50 in test [1] (setting [5]) was < 100 nM; in test [2] (setting [6]), 1000 to 10000 nM.
For the compound `CCC(CC)Cn1ccc2cnc(Nc3cnn(CC(N)=O)c3)nc21` [Example 7, 2-(4-((7-(2-ethylbutyl)-7H-pyrrolo[2,3-d]pyrimidin-2-yl)amino)-1H-pyrazol-1-yl) acetamide], the IC50 in test [1] (setting [3]) was < 100 nM; in test [2] (setting [4]), 100 to 1000 nM.
As to `CC[C@@H](Cn1ccc2cnc(Nc3cnn(C4CCNC4=O)c3)nc21)C(C)C` (some centres unmarked) [Example 8], the IC50 is < 100 nM in test [1] (setting [5]) and 1000 to 10000 nM in test [2] (setting [6]).
